# Measurements taken from patent publication US9783852B2, “Method for assessing embryotoxicity” (priority 2008, dated 2017).
# Read-outs that look alike come from different tables or passages of the source.
# How the values were obtained:
# Hand1-ES cells = test: Hand1-ES cell luciferase reporter test during myocardial differentiation; conditions: for Hand1-ES ID50 (50% inhibitory concentration for differentiation): concentration at which 50% of the luciferase activity is inhibited, day 6, medium for myocardial differentiation
# Procedure: Hand1-ES cell line was cultured while maintaining an undifferentiated state in DMEM medium containing 15% heat inactivated fetal bovine serum supplemented with LIF containing 100 μg/mL G418. The undifferentiated Hand1-ES cells were dispersed using 0.25% trypsin/1 mM EDTA, and thereafter, the cells were suspended in DMEM medium containing 15% heat inactivated fetal bovine serum. Residual trypsin was removed by centrifugation and suction of the supernatant, and the cells were suspended in DMEM medium containing 15% heat inactivated fetal bovine serum not containing LIF (hereinafter, medium for myocardial differentiation). Thereafter, the number of cells was counted using a small amount of the cell solution, and a cell suspension (medium for myocardial differentiation) was prepared so as to have a cell number of 15,000 cells/mL. The prepared cell suspensions were added with only solvent such as PBS(−) or DMSO as a solvent control or added with a test chemical prepared by diluting with solvent into several levels, and thereafter, each cell suspension was seeded in a nonadherent U-bottom 96-well plate in a volume of 50 μL, and the culture was performed for 3 days. On day 3, 50 μL of the medium for myocardial differentiation supplemented with the test chemical again prepared was added, and the suspension culture was continued for 3 days. On day 6, 100 μL of a luciferase luminescent reagent, Steady-Glo (Promega), was added to each well and shaken for 30 minutes, and thereafter, the total amount was transferred to a 96-well white plate, and the luciferase activity was measured with a TopCount NXT luminescence detection counter (Packard Japan). The obtained activity values were averaged and tallied for the solvent control group and every concentration of the test chemical.
# [1] = test system: balb/c 3T3 cells cloneA31; test: 3T3 cell proliferation test (CellTiter-Glo); assay type: cell-based; conditions: Mus musculus, BALB/c3T3, 144 h, read-out: 3T3 IC50 (50% inhibitory concentration for cell growth)
# Procedure: In addition, using balb/c 3T3 cells cloneA31 obtained from ATCC (hereinafter, 3T3 cells), the effects of each test chemical on cell proliferation were evaluated by the following method. The 3T3 cells cultured in DMEM medium containing 10% heat inactivated fetal bovine serum, 2 mM glutamine, penicillin and streptomycin (medium for 3T3) in an incubator at 37° C. and 5% CO2 were dispersed using 0.25% trypsin/1 mM EDTA, and thereafter, the cells were suspended in the medium for 3T3. Residual trypsin was removed by centrifugation and suction of the supernatant, and the cells were suspended in the medium for 3T3. Thereafter, the number of cells was counted using a small amount of the cell solution, and a cell suspension was prepared so as to have a cell number of 10,000 cells/mL. The prepared cell suspensions were added with only solvent such as PBS(−) or DMSO as a solvent control or added with a test chemical prepared by diluting with solvent into several levels. Thereafter, each cell suspension was seeded in a white 96-well plate for cell culture in a volume of 50 μL, and the culture was performed for 3 days. On day 3, 50 μL of the medium for 3T3 supplemented with the test chemical again prepared was added, and the culture was continued for 3 days. On day 6, the supernatant of each well was removed by suction, then, each well was supplemented with the solution in a CellTiter-Glo™ Luminescent Cell Viability Assay kit (Promega) and shaken for 30 minutes, and thereafter, the activity was measured with a TopCount NXT luminescence detection counter. […] The activity values obtained from each test of the Hand1-ES cells and the 3T3 cells were averaged and tallied for the solvent control group and every concentration of the test chemical, and thereafter, a relative value of each concentration was calculated using the average value of the solvent control group as 100%.
# [2] = known classification of the test chemicals used; cited from earlier work
# [3] = day 6, CellTiter-Glo luminescence
SMILES,Embryotoxicity assessment from comparing Hand1-ES ID50 with 3T3 IC50 (Hand1-ES cells),Hand1-ES ID50 (50% inhibitory concentration for differentiation) (Hand1-ES cells),"IC50 [1, 3]",in vivo embryotoxicity [2],"Embryotoxicity assessment from comparing Hand1-ES ID50 with 3T3 IC50 (Hand1-ES cells; ID50<IC50 = embryotoxic, ID50 larger than IC50 = not shown)",IC50 [1]
C[C@@H]1C[C@H]2[C@@H]3CCC4=CC(=O)C=C[C@]4(C)[C@@]3(F)[C@@H](O)C[C@]2(C)[C@@]1(O)C(=O)CO [dexamethasone],has embryotoxicity,15.6 µg/mL,36.7 µg/mL,positive,–,–
C=CC(N)=O [acrylamide],–,85.3 µg/mL,54 µg/mL,negative,embryotoxicity is not shown,–
O=c1[nH]cc(F)c(=O)[nH]1 [5-fluorouracil],has embryotoxicity,0.02 µg/mL,0.16 µg/mL,positive,–,–
O=C1O[C@H]([C@@H](O)CO)C(O)=C1O [ascorbic acid],embryotoxicity is not shown,28.3 µg/mL,–,–,–,2 µg/mL
NC(=O)NO [hydroxyurea],has embryotoxicity,2.5 µg/mL,4.7 µg/mL,–,–,–
O=c1[nH]c(=O)n([C@H]2C[C@H](O)[C@@H](CO)O2)cc1Br [5-bromo-2′-deoxyuridine],has embryotoxicity,0.12 µg/mL,0.8 µg/mL,positive,–,–
